Reference: patent US20180008587A1, “THIOHYDANTOIN ANDROGEN RECEPTOR ANTAGONISTS FOR THE TREATMENT OF CANCER” (Jaressen Pharmaceutica NV, priority 2016, published 2018)
Numbering of substitutions follows the chain as printed. Like-named read-outs stand apart in the source and are kept apart here.

Experiments:
Format in all cases: cell-based
[1] = biological target: T1, F876L mutant Androgen Receptor (AR-F876L) (Homo sapiens, UniProt P10275, F877L); assay: LNCaP-AR-F876L ANT reporter assay (ARE firefly luciferase, antagonist mode); conditions: for Emax: read-out: LNCaP-AR-F876L ANT MAX % Inh; for IC50: read-out: LNCaP-AR-F876L ANT pIC50 (converted)
T1 construct: expressed in transfected cells; host or cells: LNCaP (LNCaP F876L)
T1 sequence (P10275 1-920 F877L): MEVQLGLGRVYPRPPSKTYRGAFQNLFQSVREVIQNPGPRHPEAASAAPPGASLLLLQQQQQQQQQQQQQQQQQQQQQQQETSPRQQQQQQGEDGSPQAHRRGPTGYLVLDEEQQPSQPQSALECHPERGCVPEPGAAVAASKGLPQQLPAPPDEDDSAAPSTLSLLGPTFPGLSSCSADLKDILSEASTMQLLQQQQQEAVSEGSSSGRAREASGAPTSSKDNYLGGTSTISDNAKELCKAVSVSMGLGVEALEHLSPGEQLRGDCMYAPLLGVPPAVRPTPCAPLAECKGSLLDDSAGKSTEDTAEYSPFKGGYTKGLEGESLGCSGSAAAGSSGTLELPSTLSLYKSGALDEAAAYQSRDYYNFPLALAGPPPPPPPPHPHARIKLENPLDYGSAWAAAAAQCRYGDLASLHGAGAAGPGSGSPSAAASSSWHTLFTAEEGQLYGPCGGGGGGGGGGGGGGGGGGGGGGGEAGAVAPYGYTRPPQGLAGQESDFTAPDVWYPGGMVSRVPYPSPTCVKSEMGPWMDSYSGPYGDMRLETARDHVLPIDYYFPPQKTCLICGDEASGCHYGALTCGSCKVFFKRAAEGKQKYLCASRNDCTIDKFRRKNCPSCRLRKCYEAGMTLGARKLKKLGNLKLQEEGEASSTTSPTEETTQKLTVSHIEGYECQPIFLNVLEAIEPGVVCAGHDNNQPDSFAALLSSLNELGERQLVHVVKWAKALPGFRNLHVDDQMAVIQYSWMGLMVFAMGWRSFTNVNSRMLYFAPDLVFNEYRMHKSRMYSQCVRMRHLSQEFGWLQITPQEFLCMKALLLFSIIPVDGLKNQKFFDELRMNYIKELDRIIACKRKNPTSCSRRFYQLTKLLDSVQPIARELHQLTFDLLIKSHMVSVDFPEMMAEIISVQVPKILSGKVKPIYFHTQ
Procedure, shortened: (§1)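 Cells: stable LNCaP pools, AR-wt or AR-F876L, in charcoal-stripped serum. Agonist challenge for antagonist mode was 400 pM (WT) and 600 pM (F876L). Luminescence was measured after 20-24 h incubation.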

[2] = biological target: T2, wild-type Androgen Receptor (AR-wt) (Homo sapiens, UniProt P10275); assay: LNCaP-AR-wt AG reporter assay (ARE firefly luciferase, agonist mode); conditions: for Emax: read-out: LNCaP-AR-wt AG MAX % Stim
T2 construct: expressed in transfected cells; host or cells: LNCaP (LNCaP AR (cs))
T2 sequence (P10275 1-920): T1 sequence (P10275 1-920 F877L) with L877F
Procedure, shortened: (§2)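 LNCaP cells stably expressing wild-type or F876L AR (puromycin-selected pooled populations) were cultured in charcoal-stripped serum medium. In antagonist mode, agonist challenge was 400 pM for wild-type and 600 pM for F876L.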

[3] = biological target: T1, F876L mutant Androgen Receptor (AR-F876L); assay: LNCaP-AR-F876L AG reporter assay (ARE firefly luciferase, agonist mode); conditions: for Emax: read-out: LNCaP-AR-F876L AG MAX % Stim
Procedure, shortened: as §2

[4] = biological target: T2, wild-type Androgen Receptor (AR-wt); assay: LNCaP-AR-wt ANT reporter assay (ARE firefly luciferase, antagonist mode); conditions: for IC50: antagonist mode, 400 pM R-1881 challenge, −Log10(IC50 [Molar]), read-out: LNCaP-AR-wt ANT pIC50 (converted); for Emax: read-out: LNCaP-AR-wt ANT MAX % Inh
Procedure, shortened: as §1

[5] = maximum % inhibition of R1881 control response over tested concentration range
[6] = agonist mode, −Log10(EC50 [Molar]), read-out: LNCaP-AR-wt AG pEC50 (converted)
[7] = maximum % stimulation (agonist response) over tested concentration range
[8] = agonist mode, −Log10(EC50 [Molar]), read-out: LNCaP-AR-F876L AG pEC50 (converted)

| Compound | Emax [1, 5] [%] | IC50 [1] [nM] | EC50 [2, 6] [nM] | Emax [2, 7] [%] | EC50 [3, 8] [nM] | Emax [3, 7] [%] | IC50 [4] [nM] | Emax [4, 5] [%] | Emax [1] [%] | EC50 [2] [nM] | Emax [2] [%] | EC50 [3] [nM] | Emax [3] [%] | Emax [4] [%] |
| --- | --- | --- | --- | --- | --- | --- | --- | --- | --- | --- | --- | --- | --- | --- |
| N#Cc1ncc(N2C(=O)C3(CCC3)N(c3ccc(OC4CCOCC4)cc3)C2=S)cc1C(F)(F)F [Cpd 112, 5-[5-oxo-8-(4-tetrahydropyran-4-yloxyphenyl)-7-thioxo-6,8-diazaspiro[3.4]octan-6-yl]-3-(trifluoromethyl)pyridine-2-carbonitrile] | 97 | 331 | > 15100 | 1.1 | > 15100 | 2.7 | 355 | 100 | – | – | – | – | – | – |
| N#Cc1ncc(N2C(=O)C3(CCC3)N(c3ccc(C(=O)NCc4ccc(Cl)cc4)c(F)c3)C2=S)cc1C(F)(F)F [Cpd 53, N-[(4-chlorophenyl)methyl]-4-[6-[6-cyano-5-(trifluoromethyl)-3-pyridyl]-5-oxo-7-thioxo-6,8-diazaspiro[3.4]octan-8-yl]-2-fluoro-benzamide] | 96.7 | 646 | > 15100 | 1 | > 15100 | 0.5 | 912 | 97 | – | – | – | – | – | – |
| Cc1cc(N2C(=O)C3(CCC3)N(c3ccc(C(=O)Nc4ccc(F)cc4)c(F)c3)C2=S)cnc1C#N [Cpd 84, 4-[6-(6-cyano-5-methyl-3-pyridyl)-5-oxo-7-thioxo-6,8-diazaspiro[3.4]octan-8-yl]-2-fluoro-N-(4-fluorophenyl)benzamide] | 91.9 | 479 | > 15100 | 1 | > 15100 | 1.3 | 912 | 87.8 | – | – | – | – | – | – |
| N#Cc1ncc(N2C(=O)C3(CCC3)N(c3ccc(C(=O)Nc4ccccc4)c(F)c3)C2=S)cc1C(F)(F)F [Cpd 73, 4-[6-[6-cyano-5-(trifluoromethyl)-3-pyridyl]-5-oxo-7-thioxo-6,8-diazaspiro[3.4]octan-8-yl]-2-fluoro-N-phenyl-benzamide] | 99.1 | 417 | > 15100 | 1.9 | > 15100 | 0.6 | 759 | 99.5 | – | – | – | – | – | – |
| N#Cc1cccc(N2C(=S)N(c3cnc(C#N)c(C(F)(F)F)c3)C(=O)C23CCC3)c1 [Cpd 79, 5-[8-(3-cyanophenyl)-5-oxo-7-thioxo-6,8-diazaspiro[3.4]octan-6-yl]-3-(trifluoromethyl)pyridine-2-carbonitrile] | 101 | 331 | > 15100 | 1.6 | > 15100 | 0.5 | 631 | 101 | – | – | – | – | – | – |
| COCCNC(=O)c1ccc(N2C(=S)N(c3cnc(C#N)c(C(F)(F)F)c3)C(=O)C23CCC3)cc1F [Cpd 46, 4-[6-[6-cyano-5-(trifluoromethyl)-3-pyridyl]-5-oxo-7-thioxo-6,8-diazaspiro[3.4]octan-8-yl]-2-fluoro-N-(2-methoxyethyl)benzamide] | – | 631 | – | – | – | – | 891 | – | 98.3 | > 15100 | -0.1 | > 15100 | 0.2 | 99.9 |
| Cc1cc(N2C(=O)C3(CCC3)N(c3ccc(OC4CCSCC4)cc3)C2=S)cnc1C#N [Cpd 13, 3-methyl-5-[5-oxo-8-(4-tetrahydrothiopyran-4-yloxyphenyl)-7-thioxo-6,8-diazaspiro[3.4]octan-6-yl]pyridine-2-carbonitrile] | 101 | 229 | > 15100 | 0.4 | > 15100 | 0.1 | 407 | 102 | – | – | – | – | – | – |
| COc1ccc(N2C(=S)N(c3cnc(C#N)c(C)c3)C(=O)C23CCC3)cc1 [Cpd 69, 5-[8-(4-methoxyphenyl)-5-oxo-7-thioxo-6,8-diazaspiro[3.4]octan-6-yl]-3-methyl-pyridine-2-carbonitrile] | 99.1 | 132 | > 15100 | 0.9 | > 15100 | 0.7 | 282 | 102 | – | – | – | – | – | – |

More lines, main results first:

| Emax [1, 5] [%] | IC50 [1] [nM] | EC50 [2, 6] [nM] | Emax [2, 7] [%] | EC50 [3, 8] [nM] | Emax [3, 7] [%] | IC50 [4] [nM] | Emax [4, 5] [%] | Compound | Emax [1] [%] | EC50 [2] [nM] | Emax [2] [%] | EC50 [3] [nM] | Emax [3] [%] | Emax [4] [%] |
| --- | --- | --- | --- | --- | --- | --- | --- | --- | --- | --- | --- | --- | --- | --- |
| 98.4 | 741 | > 15100 | 0.2 | > 15100 | 1.1 | 1950 | 97.9 | CN1CCC(NC(=O)c2ccc(N3C(=S)N(c4cnc(C#N)c(C(F)(F)F)c4)C(=O)C34CCC4)cc2F)CC1 [Cpd 109, 4-[6-[6-cyano-5-(trifluoromethyl)-3-pyridyl]-5-oxo-7-thioxo-6,8-diazaspiro[3.4]octan-8-yl]-2-fluoro-N-(1-methyl-4-piperidyl)benzamide] | – | – | – | – | – | – |
| 95.5 | 437 | > 15100 | 0 | > 15100 | 1.2 | 363 | 103 | CCOC(=O)CCCNC(=O)c1ccc(N2C(=S)N(c3cnc(C#N)c(C(F)(F)F)c3)C(=O)C23CCC3)cc1F [Cpd 82, ethyl 4-[[4-[6-[6-cyano-5-(trifluoromethyl)-3-pyridyl]-5-oxo-7-thioxo-6,8-diazaspiro[3.4]octan-8-yl]-2-fluoro-benzoyl]amino]butanoate] | – | – | – | – | – | – |
| 102 | 186 | > 15100 | -0.2 | > 15100 | 0.3 | 282 | 102 | CCOC(=O)CNC(=O)c1ccc(N2C(=S)N(c3cnc(C#N)c(C(F)(F)F)c3)C(=O)C23CCC3)cc1F [Cpd 41, ethyl 2-[[4-[6-[6-cyano-5-(trifluoromethyl)-3-pyridyl]-5-oxo-7-thioxo-6,8-diazaspiro[3.4]octan-8-yl]-2-fluoro-benzoyl]amino]acetate] | – | – | – | – | – | – |
| 95.4 | 427 | > 15100 | 0.4 | > 15100 | 1.2 | 891 | 100 | N#Cc1ncc(N2C(=O)C3(CCC3)N(c3ccc(C(N)=O)c(F)c3)C2=S)cc1C(F)(F)F [Cpd 80, 4-[6-[6-cyano-5-(trifluoromethyl)-3-pyridyl]-5-oxo-7-thioxo-6,8-diazaspiro[3.4]octan-8-yl]-2-fluoro-benzamide] | – | – | – | – | – | – |
